Measurements reported in patent US7511041B2, “Fused azole-pyrimidine derivatives” (Bayer Pharmaceuticals Corporation, priority 2002, dated 2009).
Like-named read-outs stand apart in the source and are kept apart here.

Tests used:
[1] = target: T1, Recombinant human PI3Kγ (full length human PI3K p110γ) (Homo sapiens, UniProt P48736); test: Kinase assay of PI3Kγ (solid-phase lipid kinase assay); assay type: biochemical
T1 construct: full length human PI3K p110γ fused with a His6-tag at the C-terminus; His6 (C); purchased ALEXIS BIOCHEMICALS #201-055-C010; host or cells: S. frugiperda 9 insect cells
T1 sequence (P48736 whole entry, the tested form may be a part): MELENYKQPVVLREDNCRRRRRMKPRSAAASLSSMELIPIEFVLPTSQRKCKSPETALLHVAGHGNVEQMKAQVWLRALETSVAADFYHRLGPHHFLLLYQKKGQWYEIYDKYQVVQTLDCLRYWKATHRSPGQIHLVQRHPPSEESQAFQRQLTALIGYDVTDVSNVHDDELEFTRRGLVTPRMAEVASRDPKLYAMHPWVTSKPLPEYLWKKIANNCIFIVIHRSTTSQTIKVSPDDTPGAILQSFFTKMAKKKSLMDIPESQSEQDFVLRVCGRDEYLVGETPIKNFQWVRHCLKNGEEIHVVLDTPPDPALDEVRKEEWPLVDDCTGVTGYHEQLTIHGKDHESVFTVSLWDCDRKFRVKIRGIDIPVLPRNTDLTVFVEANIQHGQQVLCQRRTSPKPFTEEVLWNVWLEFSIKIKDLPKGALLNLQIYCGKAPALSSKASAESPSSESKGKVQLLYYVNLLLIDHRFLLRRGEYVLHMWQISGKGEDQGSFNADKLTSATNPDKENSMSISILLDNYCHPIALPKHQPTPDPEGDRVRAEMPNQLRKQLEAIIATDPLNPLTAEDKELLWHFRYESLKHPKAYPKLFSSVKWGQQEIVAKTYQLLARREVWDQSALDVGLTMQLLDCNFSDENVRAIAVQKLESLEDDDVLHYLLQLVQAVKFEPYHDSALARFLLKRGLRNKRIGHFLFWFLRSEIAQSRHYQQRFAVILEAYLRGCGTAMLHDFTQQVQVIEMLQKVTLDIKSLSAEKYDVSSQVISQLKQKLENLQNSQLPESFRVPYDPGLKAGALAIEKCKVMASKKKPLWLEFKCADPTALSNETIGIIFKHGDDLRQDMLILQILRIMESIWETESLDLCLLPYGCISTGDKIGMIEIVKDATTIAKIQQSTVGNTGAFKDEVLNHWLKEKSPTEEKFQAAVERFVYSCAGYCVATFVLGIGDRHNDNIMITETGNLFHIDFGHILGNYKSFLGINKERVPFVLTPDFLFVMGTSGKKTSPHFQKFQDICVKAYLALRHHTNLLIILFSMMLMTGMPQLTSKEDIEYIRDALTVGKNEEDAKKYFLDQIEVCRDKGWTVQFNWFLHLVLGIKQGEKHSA

[2] = in vitro PI3K-γ inhibitory activity, class symbols A-D, read-out: in vitro PI3K-gamma
[3] = Table 1, isozyme not given, read-out: in vitro
[4] = in vitro PI3K-γ inhibitory activity, class symbols, read-out: in vitro PI3K-gamma

Row | SMILES | melting point | IC50 [1, 2] [nM] | IC50 [1, 3] [nM] | IC50 [1, 4] [nM]
1 | COC(=O)CCCOc1c(OC)ccc2c1N=C(/C=C(\O)c1cccnc1)N1CCN=C21.Cl [Example 1-199] | 178 to 179 °C |  | < 100 | 
2 | Cl.O=C(NC1=Nc2cc(N3CCOCC3)ccc2C2=NCCN12)c1ccc2[nH]cnc2c1 [Example 2-11] | 294 °C (dec.) |  |  | < 100
3 | COc1ccc2c(c1OC)N=C(NC(=O)c1ccc3[nH]cnc3c1)N1CCN=C21 [Example 2-49] | 289 °C (dec.) |  |  | < 100
4 | COc1cccc2c1N=C(NC(=O)c1ccc3[nH]cnc3c1)N1CCN=C21 [Example 2-124] | 287 °C |  |  | < 100
5 | CN(CCO)c1ccc2c(c1)N=C(/C=C(\O)c1ccc3[nH]cnc3c1)N1CCN=C21.Cl [Example 1-110] | 231 °C (dec.) |  | 100 to 500 | 
6 | CNc1ccc(/C(O)=C/C2=Nc3cc(OC)c(OC)cc3C3=NCCN23)cn1 [Example 1-52] | 321 to 325 °C |  | 100 to 500 | 
7 | CC(=O)Nc1ccc(/C(O)=C/C2=Nc3cc(N4CCCC(O)C4)ccc3C3=NCCN23)cn1.Cl (stereo not drawn) [Example 1-102] | 238 °C (dec.) |  | 100 to 500 | 
8 | Cc1cccc(C(=O)NC2=Nc3ccccc3C3=NCCN23)c1.O=C(O)C(F)(F)F [Example 2-217] | 239 to 241 °C | 100 to 500 |  | 
9 | Cl.O=C(NC1=Nc2cc(C(F)(F)F)ccc2C2=NCCN12)c1cncc(O)c1 [Example 2-35] | 237 °C (dec.) |  |  | < 100
10 | COc1cccc(C(=O)NC2=Nc3ccccc3C3=NCCN23)c1.O=C(O)C(F)(F)F [Example 2-234] | 209 to 211 °C | 500 to 2000 |  | 
11 | Cc1ccc2c(c1)N=C(NC(=O)c1cccs1)N1CCN=C21 [Example 2-31] | 182 °C |  |  | 100 to 500
12 | COc1cc2c(cc1OC)C1=NCCN1C(/C=C(\O)c1ccc(C#N)cc1)=N2 [Example 1-187] | 307 to 308 °C |  | > 2000 | 
13 | COc1cc2c(c(OC)c1C)N=C(NC(=O)c1ccc(NC(C)=O)nc1)N1CCN=C21 [Example 2-79] | > 310 °C |  |  | 100 to 500
14 | COc1cc2c(c(OC)c1C)N=C(/C=C(\O)c1ccc3[nH]cnc3c1)N1CCN=C21 [Example 1-66] | 280 °C |  | 100 to 500 | 
15 | COc1cc2c(cc1OC)C1=NCCN1C(NC(=O)c1cncc(C)c1)=N2.Cl [Example 2-59] | 257 °C (dec.) |  |  | 100 to 500
16 | Cl.O/C(=C\C1=Nc2c(F)cccc2C2=NCCN12)c1cccnc1 [Example 1-71] | 303 °C |  | 100 to 500 | 
17 | O/C(=C\C1=Nc2ccccc2C2=NCCN12)C(Cl)(Cl)Cl [Example 1-158] | 190 °C (dec.) |  | 100 to 500 | 
18 | O/C(=C\C1=Nc2ccccc2C2=NCCN12)c1ccccc1 [Example 1-166] | 130 to 139 °C |  | 500 to 2000 | 
19 | CCOc1ccc2c(c1OC)N=C(/C=C(\O)c1cccnc1)N1CCN=C21 [Example 1-13] | 267 to 268 °C |  | < 100 | 

Row | SMILES | melting point | IC50 [1, 2] [nM] | IC50 [1, 3] [nM] | IC50 [1, 4] [nM]
20 | Cc1ccc2c(c1)C1=NCCN1C(/C=C(\O)c1cccnc1)=N2 [Example 1-131] | 212 °C |  | 100 to 500 | 
21 | COc1cc2c(cc1OC)C1=NCCN1C(NC(=O)c1cc(C)nn1C)=N2 [Example 2-64] | 236 to 237 °C |  |  | 100 to 500
22 | CCC/C(O)=C/C1=Nc2ccccc2C2=NCCN12 [Example 1-182] | 113 °C |  | > 2000 | 
23 | COc1c(OCCN2CCCC2)ccc2c1N=C(/C=C(\O)c1cccnc1)N1CCN=C21 [Example 1-21] | 204 to 205 °C |  | < 100 | 
24 | O/C(=C\C1=Nc2ccccc2C2=NCCN12)c1nccs1 [Example 1-154] | 208 to 210 °C |  | < 100 | 
25 | CN1CCN(c2ccc3c(c2)N=C(/C=C(\O)c2ccc4[nH]cnc4c2)N2CCN=C32)CC1 [Example 1-107] | 207 °C |  | < 100 | 
26 | CN(C)C(=O)NCCc1ccc2c(n1)N=C(/C=C(\O)c1cccnc1)N1CCN=C21 [Example 1-203] | 228 °C |  | 100 to 500 | 
27 | O=C(NC1=Nc2ccc(Cl)cc2C2=NCCN12)c1cccnc1 [Example 2-84] | 210 °C |  |  | 100 to 500
28 | COc1c(OCC(=O)N(C)C)ccc2c1N=C(/C=C(\O)c1cccnc1)N1CCN=C21 [Example 1-27] | 241 to 242 °C |  | < 100 | 
29 | O=C(NC1=Nc2cc(Br)ccc2C2=NCCN12)c1ccc2[nH]cnc2c1 [Example 2-44] | 262 °C |  |  | 100 to 500
30 | O/C(=C\C1=Nc2ccc(O)cc2C2=NCCN12)c1cccnc1 [Example 1-124] | 302 to 303 °C |  | 100 to 500 | 
31 | Cl.O/C(=C\C1=Nc2ncccc2C2=NCCN12)c1ccc2[nH]cnc2c1 [Example 1-160] | 247 °C (dec.) |  | 100 to 500 | 
32 | Cc1ccc2c(c1)N=C(NC(=O)c1ccc3[nH]cnc3c1)N1CCN=C21 [Example 2-29] | 190 °C |  |  | < 100
33 | COc1ccc2c(c1)C1=NCCN1C(NC(=O)c1cccnc1)=N2.Cl [Example 2-93] | > 300 °C |  |  | 100 to 500
34 | O=C(NC1=Nc2cc(Cl)ccc2C2=NCCN12)c1ccc2[nH]cnc2c1 [Example 2-39] | 288 °C |  |  | < 100
35 | Nc1cncc(C(=O)NC2=Nc3ccccc3C3=NCCN23)c1.O=C(O)C(F)(F)F [Example 2-145] | 220 °C (dec.) |  |  | 100 to 500
36 | CC(=O)Nc1ccc(/C(O)=C/C2=Nc3c(CN4CCOCC4)cccc3C3=NCCN23)cn1 [Example 1-208] | 253 °C (dec.) |  | 100 to 500 | 
37 | COc1cc2c(c(OC)c1C)N=C(NC(=O)c1cccnc1C)N1CCN=C21 [Example 2-77] | 210 °C (dec.) |  |  | < 100

Continued, values first:

Row | melting point | IC50 [1, 2] [nM] | IC50 [1, 3] [nM] | IC50 [1, 4] [nM] | SMILES
38 | 279 to 281 °C | > 2000 |  |  | O=C(NC1=Nc2ccccc2C2=NCCN12)c1ccc([N+](=O)[O-])cc1 [Example 2-254]
39 | 257 °C (dec.) | 500 to 2000 |  |  | Cc1cnc(C(=O)NC2=Nc3ccccc3C3=NCCN23)cn1 [Example 2-294]
40 | 226 to 228 °C | > 2000 |  |  | O=C(NC1=Nc2ccccc2C2=NCCN12)c1ccc(Cl)cc1 [Example 2-229]
41 | 119 to 120 °C | > 2000 |  |  | O=C(NC1=Nc2ccccc2C2=NCCN12)C1CCCCN1C(=O)OCc1ccccc1 (stereo not drawn) [Example 2-337]
42 | 202 to 204 °C | > 2000 |  |  | COc1cccc(C(=O)NC2=Nc3ccccc3C3=NCCN23)c1 [Example 2-233]
43 | > 250 °C | 500 to 2000 |  |  | Cl.O=C(NC1=Nc2ccccc2C2=NCCN12)c1ccc(C(F)(F)F)nc1 [Example 2-281]
44 | 269 to 270 °C | > 2000 |  |  | O=C(NC1=Nc2ccccc2C2=NCCN12)c1csc([N+](=O)[O-])c1 [Example 2-305]
45 | 254 °C | 100 to 500 |  |  | O=C(NC1=Nc2cc(Cl)ccc2C2=NCCN12)c1cccnc1 [Example 2-353]
46 | 231 °C (dec.) |  |  | 100 to 500 | Cl.O=C(O)COc1ccc2c(c1)N=C(NC(=O)c1cccnc1)N1CCN=C21 [Example 2-203]
47 | 198 to 199 °C |  |  | < 100 | O=C(NC1=Nc2ccccc2C2=NCCN12)c1cccnc1Cl [Example 2-134]
48 | 263 to 266 °C |  |  | < 100 | Nc1cncc(C(=O)NC2=Nc3ccccc3C3=NCCN23)c1 [Example 2-144]
49 | 296 °C (dec.) | 100 to 500 |  |  | O=C(NC1=Nc2ccc(O)cc2C2=NCCN12)c1ccc2[nH]cnc2c1 [Example 2-212]
50 | 358 to 359 °C |  |  | 100 to 500 | O=C(O)c1cncc(C(=O)NC2=Nc3ccccc3C3=NCCN23)c1 [Example 2-142]
51 | 246 to 247 °C |  |  | 100 to 500 | Cc1cc(C(=O)NC2=Nc3ccccc3C3=NCCN23)cnc1N [Example 2-159]
52 | 204 to 205 °C | 500 to 2000 |  |  | O=C(NC1=Nc2ccccc2C2=NCCN12)c1ccccn1 [Example 2-276]
53 | 174 °C | 500 to 2000 |  |  | O=C(NC1=Nc2ccc(Cl)cc2C2=NCCN12)c1cccs1 [Example 2-355]
54 | 247 °C | < 100 |  |  | Cl.O=C(NC1=Nc2cc(OCCCN3C(=O)c4ccccc4C3=O)ccc2C2=NCCN12)c1cccnc1 [Example 2-209]
55 | 311 °C (dec.) | 500 to 2000 |  |  | Cl.O=C(NC1=Nc2ccccc2C2=NCCN12)c1ccco1 [Example 2-299]
56 | 281 °C (dec.) | > 2000 |  |  | O=C(NC1=Nc2ccccc2C2=NCCN12)c1csc(-c2ccncc2)n1 [Example 2-321]
57 | 265 °C (dec.) |  |  | 100 to 500 | O=C(NC1=Nc2ccccc2C2=NCCN12)c1c[nH]cn1 [Example 2-193]
58 | 183 to 184 °C |  |  | < 100 | COc1cccc2c1N=C(NC(=O)c1cc3cccnc3nc1C)N1CCN=C21 [Example 2-126]
59 | 288 to 289 °C | > 2000 |  |  | Cn1cc(C(=O)NC2=Nc3ccccc3C3=NCCN23)c2ccccc21 [Example 2-315]
60 | 243 to 247 °C (dec.) | 100 to 500 |  |  | Cl.O=C(NC1=Nc2cc(OCCN3CCOCC3)ccc2C2=NCCN12)c1cccnc1 [Example 2-205]
61 | 111 to 112 °C | > 2000 |  |  | O=C(NC1=Nc2ccccc2C2=NCCN12)C1CCN(C(=O)OCc2ccccc2)CC1 [Example 2-341]
62 | 306 °C (dec.) |  |  | 100 to 500 | Cl.O=C(NC1=Nc2ccccc2C2=NCCN12)c1nccs1 [Example 2-188]
63 | 240 °C (dec.) | > 2000 |  |  | NS(=O)(=O)c1ccc(C(=O)NC2=Nc3ccccc3C3=NCCN23)c(Cl)c1 [Example 2-249]
